Experimental data published in patent US20260166016A1, “GPR139 RECEPTOR AGONIST, PREPARATION METHOD THEREFOR, AND APPLICATION THEREOF” (NEUBO APPTECH CO., LTD., priority 2022, published 2026).

Tests used:
[1] = test system: LPS induced mouse depression model; assay: LPS induced mouse depression model, corticosterone level; type: in vivo; settings: gavage 2.5 mg/mL at 0.1 mL/10 g twice daily Day 1-4, blood collected Day 5, FIG. 8
From the text: Mice: Male Crl: CD1 (ICR) mice; 10-14 weeks old; Weight: 35-40 g; Quantity: 40 pieces
Group 1, placebo+saline group: 10 mice; divided into 2 cages, 5 mice per cage.
Group 2, placebo+lipopolysaccharide (LPS) group: 10 mice; divided into 2 cages, 5 mice per cage.
Group 3, compound NRB181+saline group: 10 mice; divided into 2 cages, 5 mice per cage.
Group 4, compound NRB181+lipopolysaccharide (LPS) group: 10 mice; divided into 2 cages, 5 mice per cage.
21.3.1 Preparation of placebo before experiment: 0.5% CMC sodium+1% Tween80+saline. In a clean bench, 4 tubes of 40 mL placebo were prepared using pyrogen-free centrifuge tubes and ultrapure water, totaling 160 mL, ensuring the absence of endotoxins (LPS). Sterile and endotoxin free centrifuge tubes were used to divide […] of placebo into 4 mL/tube, for a total of 30 tubes, and stored at 4° C. for future use.
LPS with a purity of >98% was required 3.2 mg of LPS was accurately weighed and dissolved in 40 mL of placebo to prepare a sterile solution of 0.08 mg/mL. After thorough mixing, the solution was divided into sterile and endotoxin-free centrifuge tubes, 4 mL per tube. The LPS solution needed for the next day was stored at 4° C. (3 tubes), while the rest was frozen at −20° C. for future use. […]

mice in Forced Swim Test = assay: Mouse Forced Swim Test; type: in vivo; settings: male CD1 (ICR) mice; i.p. 2.5 mg/mL solution at 0.1 mL/10 g; test 10 minutes after injection; FIG. 3
Procedure: Mouse strain: Male Crl: CD1 (ICR) mice; Weight: 35-40 g; Quantity: 16 pieces
Group 1, placebo group: 8 mice, 4 mice per cage;
Group 2, NRB181 group: 8 mice, 4 mice per cage.
20.3.1 Preparation of placebo before experiment: 10% DMSO+saline.
20.3.2 Preparation of compound NRB181 before experiment: 10 mg of NRB181 was weighed and added to 4 mL of placebo, mixed well.
20.3.4 On the morning of the experimental day, all mice were weighed and then evenly divided into each group based on their weight, with 8 mice per group, for a total of 16 mice.
20.3.5 The mice were transferred to the behavioral laboratory and allowed to adapt for 3 hours.
20.3.6 Drug injection: mice of Group 1 received intraperitoneal injection of placebo at a dose of 0.1 mL/10 g; after Forced Swim Test of the mice in Group 1, mice in Group 2 were intraperitoneally injected with compound NRB181 at a dose of 0.1 mL/10 g.
Mice of Group 1 underwent Forced Swim Test in sequence 10 minutes after injection. The mice were placed in a glass jar (diameter 10 cm, height 25 cm; water depth 15 cm, water temperature 23° C.) and swam for 6 minutes. The first 2 minutes were the adaptation period, and the last 4 minutes were the experimental period; The software records the immobility time, swimming time, and climbing time of mice within 4 minutes. […]

## C[C@H](NC(=O)CNC(=O)c1cc(Cl)ccn1)c1c(F)cccc1F [NRB181]
[1]
  expression level of corticosterone: significantly reduce the expression level of corticosterone
Mice in Forced Swim Test
  time of despair (immobility time) in Forced Swim Test: significantly reduce
